Data published in patent US8653083B2, “Hedgehog pathway antagonists to treat disease” (The Johns Hopkins University, priority 2005, dated 2014).
Where a name gives a salt, the structure may show the parent alone. Read-outs that look alike come from different tables or passages of the source.

Assays:
[1] = tested on: Sonic hedgehog (Shh) signaling; assay: Cultured cell based Sonic hedgehog (Shh) signaling assay, luciferase reporter
Method: A library of drugs was previously tested in humans for agents that antagonize Hedgehog signaling. […] The assays used for the screen for Hh pathway antagonists proceeded essentially as described in reference 5. Briefly, each candidate compound was added at 10 uM to a cultured cell based Sonic hedgehog (Shh) signaling assay in high through-put format. This assay utilized cells with a stably integrated firefly luciferase reporter that is responsive to ShhN signaling. These cells also contain a stably integrated, constitutively expressed Renila luciferase gene that can be used for normalization of response to Shh, and used also to monitor cell health.

[2] = tested on: 22RV1 xenografts; assay: 22RV1 human prostate cancer xenografts in athymic mice, tumor growth; format: in vivo; details: itraconazole 37.5 mg/kg
[3] = tested on: AT6.3 metastasis model; assay: AT6.3 Dunning prostate cancer metastasis model, survival; format: in vivo, mice; details: cyclopamine comparator, dose not given
[4] = Hh pathway inhibition, cells with ShhN-responsive firefly luciferase reporter, normalized to Renila luciferase, titration of 10 uM hits, read-out: IC50

SMILES	IC50 [1, 4]	also measured
CCC(C)n1ncn(-c2ccc(N3CCN(c4ccc(OCC5COC(Cn6cncn6)(c6ccc(Cl)cc6Cl)O5)cc4)CC3)cc2)c1=O (racemic) [Itraconazole, (±)-cis-4-[4-[4-[4-[[2-(2,4-dichlorophenyl)-2-(1H-1,2,4-triazol-1-yl-methyl)-1,3-dioxolan-4-yl)methoxy]phenyl]-1-piperazinyl]phenyl]-2,4-dihydro-2-(1-methylpropyl)-3H-1,2,4-triazol-3-one]	300 nM	tumor volume change [2]: −100 % volume
Nc1ncn([C@@H]2O[C@H](CO)[C@@H](O)[C@H]2O)c(=O)n1 [5-AZACYTIDINE]	1000 to 3000 nM	
CN(C)CCC=C1c2ccccc2CCc2ccccc21 [Amitriptyline]	1000 to 3000 nM	
COc1ccc(C[C@H]2NC[C@H](O)[C@H]2OC(C)=O)cc1 [Anisomycin]	< 100 nM	
COc1cc2c(c(OC)c1OC)-c1ccc(=O)c(O)cc1[C@@H](NC(C)=O)CC2 [COLCHICEINE]		IC50 [1]: 300 to 1000 nM
C=C1C(=O)O[C@H]2C[C@@H]1C(OC(C)=O)C/C(C)=C/CC/C(C)=C/CC[C@@]2(C)O (some centres unmarked) [CRASSIN ACETATE]	1000 to 3000 nM	
Cc1ccc2c(Cl)cc(Cl)c(O)c2n1 [Chlorquinaldol, 5,7-Dichloro-2-methyl-8-quinolinol]	3000 nM	
CN1CCN(C2=Nc3ccccc3Sc3ccc(Cl)cc32)CC1 [Clothiapine]	1000 to 3000 nM	
C[C@@H]1C[C@@H]([C@H](O)CC2CC(=O)NC(=O)C2)C(=O)[C@@H](C)C1 [Cycloheximide]		IC50 [1]: 300 to 1000 nM
CC1=C2C[C@H]3[C@@H](CC=C4C[C@@H](O)CC[C@@]43C)[C@@H]2CC[C@]12O[C@@H]1C[C@H](C)CN[C@H]1[C@H]2C [Cyclopamine]		IC50 [1]: 300 to 1000 nM; survival [3]: extending survival
C[C@H]1[C@@H](O)O[C@@H]2O[C@@]3(C)CC[C@H]4[C@H](C)CC[C@@H]1[C@@]24OO3 [DIHYDROARTEMISIMIN]	1000 to 3000 nM	
CCOC(=O)NC1=C(N2CC2)C(=O)C(NC(=O)OCC)=C(N2CC2)C1=O [Diaziquone]	300 to 1000 nM	
CC(=O)Oc1ccc2c(c1)CC[C@@H]1[C@@H]2CC[C@]2(C)[C@@H](O)CC[C@@H]12 [ESTRADIOL ACETATE]	1000 to 3000 nM	
CC12CCC(CC1)C(C)(C)O2 [Eucalyptol]	300 to 1000 nM	
OCCOCCN1CCN(C(c2ccccc2)c2ccc(Cl)cc2)CC1 (centres unmarked) [Hydroxyzine]	300 to 1000 nM	
CN(C)CCCN1c2ccccc2CCc2ccccc21 [Imipramine]	1000 to 3000 nM	
CN1CCN(C2=Nc3ccccc3Oc3ccc(Cl)cc32)CC1 [LOXAPINE SUCCINATE]	100 to 300 nM	

SMILES	IC50 [1, 4]	also measured
CC[C@H]1/C=C/C=C/C[C@@H](C)[C@H](O)[C@@](C)(O)C(=O)[C@@H](C)[C@H](O)[C@@H](C)C(=O)[C@@H](C)[C@H](O)[C@@H](C)/C=C/C(=O)O[C@@H]2[C@H](C)[C@H](CC1)O[C@]1(CC[C@H](C)[C@H](C[C@@H](C)O)O1)[C@H]2C [OLIGOMYCIN]	< 100 nM	
CC(COc1ccccc1)N(CCCl)Cc1ccccc1 (centres unmarked) [PHENOXYBENZAMINE HYDROCHLORIDE]	1000 to 3000 nM	
CN1CCC(=C2c3ccccc3Sc3ccccc32)CC1 [PIMETHIXENE MALEATE]	300 to 1000 nM	
CN(C)CCCN1c2ccccc2Sc2ccccc21 [PROMAZINE HYDROCHLORIDE]	1000 to 3000 nM	
CC(CN1c2ccccc2Sc2ccccc21)N(C)C (centres unmarked) [PROMETHAZINE HYDROCHLORIDE]	300 to 1000 nM	
C=C(C)[C@H]1Cc2c(ccc3c2O[C@@H]2COc4cc(OC)c(OC)cc4[C@@H]2C3=O)O1 [ROTENONE]		IC50 [1]: 1000 to 3000 nM
O=C(c1ccc(OCCN2CCCCC2)cc1)c1c(-c2ccc(O)cc2)sc2cc(O)ccc12 [Raloxifene hydrochloride]	1000 to 3000 nM	
CC[C@@H](C(=O)[C@@H](C)[C@@H](O)[C@H](C)[C@@H]1O[C@@H]([C@@H](CC)C(=O)O)CC[C@@H]1C)[C@H]1O[C@]2(C=C[C@@H](O)[C@]3(CC[C@@](C)([C@H]4CC[C@](O)(CC)[C@H](C)O4)O3)O2)[C@H](C)C[C@@H]1C [SALINOMYCIN, SODIUM]	< 100 nM	
Nc1ccc(S(=O)(=O)Nc2cnc3ccccc3n2)cc1 [SULFAQUINOXALINE SODIUM]	300 to 1000 nM	
Cc1cc(NS(=O)(=O)c2ccc(N)cc2)nc(C)n1 [Sulfisomidine]	300 to 1000 nM	
CC(CN(C)C)CN1c2ccccc2CCc2ccccc21 (centres unmarked) [TRIMIPRAMINE MALEATE]	1000 to 3000 nM	
CC[C@]1(O)C[C@@H]2CN(CCc3c([nH]c4ccccc34)[C@@](C(=O)OC)(c3cc4c(cc3OC)N(C)[C@H]3[C@@](O)(C(=O)OC)[C@H](OC(C)=O)[C@]5(CC)C=CCN6CC[C@]43[C@@H]65)C2)C1 [Vinblastine sulfate]	300 to 1000 nM	
CC[C@]1(O)C[C@H]2CN(CCc3c([nH]c4ccccc34)[C@@](C(=O)OC)(c3cc4c(cc3OC)N(C=O)[C@H]3[C@@](O)(C(=O)OC)[C@H](OC(C)=O)[C@]5(CC)C=CCN6CC[C@]43[C@@H]65)C2)C1 [Vincristine sulfate]	< 100 nM	
CC[C@]1(O)C[C@@H]2CN(CCc3c([nH]c4ccccc34)[C@@](C(=O)OC)(c3cc4c(cc3OC)N(C)[C@H]3[C@@](O)(C(N)=O)[C@H](O)[C@]5(CC)C=CCN6CC[C@]43[C@@H]65)C2)C1 [Vindesine]	< 100 nM	
CCC1=C[C@@H]2CN(C1)Cc1c([nH]c3ccccc13)[C@@](C(=O)OC)(c1cc3c(cc1OC)N(C)[C@H]1[C@@](O)(C(=O)OC)[C@H](OC(C)=O)[C@]4(CC)C=CCN5CC[C@]31[C@@H]54)C2 [Vinorelbine tartrate]	< 100 nM	
c1cc(CN2CCCCC2)cc(OCCCNc2nc3ccccc3s2)c1 [Zolantidine]	1000 to 3000 nM	
